Results: patent publication US11840706B2, “Composition and method for generating a desired cell type and/or tissue type from hair follicular stem cells” (priority 2013, dated 2023)
Entries after “also recorded” stand apart in the source; their conditions may differ.

Test system: keratinocytes
Experiment: Effect of vanadium compounds on proliferation of keratinocytes (hair follicle culture, cell count)
Type: cell-based
Conditions: 14 days culture; for amount of proliferated keratinocytes relative to the control situation: 1 mg/ml in basic SFK growth medium, 31° C., control = SFK medium lacking a vanadium compound
Method: Method: Hair follicles were transferred to a 24-well culture disk containing dSFK with 500 mg/ml penicillin (Life Technologies B.V. Breda, The Netherlands) and 0.25 μg/ml streptomycin (Life Technologies B.V. Breda, The Netherlands), and placed for 14 days in a culture medium at 31° C. in a humidified atmosphere containing 5% CO2. Three different culture medium were used: • Treatment group oxovanadium (OVAN): The culture medium is a composition comprising a basic SFK growth serum (purchased from the supplier SFK, Enschede The Netherlands) supplemented with either 1 mg/ml of OVAN. • Treatment group bis (maltolato) oxovanadium (BMOV): The culture medium is a composition comprising a basic SFK growth serum (purchased from the supplier SFK, Enschede The Netherlands) supplemented with either 1 mg/ml of BMOV. • Control group: The control situation consists of a composition comprising the SFK basic growth serum but without the vanadium compounds (i.e. OVAN or BMOV).
The respective culture media were carefully removed every three days and replaced by fresh culture media. The cells remained attached to the hair follicles during this culture period. After 14 days the culture medium was removed and replaced by a 0.5 mg/ml trypsin, 0.2 mg/ml EDTA (ethylene diaminetetraacetic acid) solution (Life Technologies B.V. Breda, The Netherlands), and incubated for 5 minutes at 37° C. in this medium. After this incubation period clusters of cells were released from the hair follicles. These were harvested by centrifugation at 300 g at 4° C. for 5 minutes in an Eppendorf 5804R Centrifuge (VWR International, The Netherlands). Number of cells were counted and expressed as amount of proliferated cells per ml of culture medium.

Molecule | proliferation of keratinocytes, BMOV compared with OVAN (1 mg/ml each) | amount of proliferated keratinocytes relative to the control situation
Cc1occc(=O)c1[O-].Cc1occc(=O)c1[O-].[O]=[V+2] [BMOV, bis(maltolato) oxovanadium] | greater number of proliferated cells relative to treatment with OVAN; also recorded: more potent than OVAN | enhanced proliferation; also recorded: significantly increased
oxovanadium |  | enhanced proliferation; also recorded: significantly increased
